Assay results from PMC9849758, “Chemically diverse activity-based probes with unexpected inhibitory mechanisms targeting trypsin-like serine proteases” (Frontiers in Chemistry, 2023).
“Also recorded” adds a separate entry of the source. Like-named read-outs stand apart in the source and are kept apart here.

Assays:
Type in all cases: biochemical
Thrombin [1] = biological target: T1, Thrombin (Homo sapiens, UniProt P00734); assay: Kinetic progress curves (kapp, K1, KI*, mechanism); details: for Ki / Thrombin kapp: mean ± SD; for Thrombin kapp: apparent second-order rate constant from progress curves; for Thrombin mechanism of inhibition: defined by the progress curves: slow-binding (Rev.) or irreversible (Irrev.)
T1 construct: purchased R&D
Procedure: (§1) Because the compounds described in this paper were previously described as irreversible inhibitors, the IC50 value is inversely correlated with the second-order rate constant of inactivation. For a simple pseudo-first-order inactivation process, the activity after incubation with inhibitor (vi) varies with the inhibitor concentration (i), as described in the following equation: vi=v0·e^−kit where v0 is the activity in the absence of an inhibitor, k is the second-order rate constant of inactivation, and t is the time. The inactivation rate constant was determined from the time course of inhibition.
(§2) Kinetic assays were performed in the following manner. The inhibitor was mixed with the substrate, and the buffer solution with the enzyme was added at the time zero. The progress curves show the release of pNA or AMC as a function of time. Initially, no inhibitor is bound to the enzyme, and the tangent to the progress curve (dA/dt) is proportional to the free enzyme concentration. The free enzyme concentration decreases over time due to inhibitor binding kinetics, as described above. Progress curves were recorded in pseudo-first-order conditions ([I]0>>[E]0) and with less than 10% conversion of the substrate during the entire time course. In these conditions, dA/dt decreases exponentially with time. The progress curves were fitted with the integrated rate equation with GraFit7 to yield a value for kobs, a pseudo-first-order rate constant. At=Ao+vs∙t+vi−vs∙1−e^−kobs∙t/kobs where At is the absorbance at time t, A0 is the absorbance at time zero, vi is the initial rate and vs is the velocity at the steady-state.
(§3) The apparent second-order rate constant (kapp) was calculated from the slope of the linear part of the plot of kobs vs. the inhibitor concentration ([I]0). In the case of competition between the inhibitor and the substrate, kapp is smaller than the “real” second-order rate constant k discussed above because a certain fraction of the enzyme is present as an enzyme-substrate complex. kapp depends on the substrate concentration used in the experiment, as described by [Lambeir et al. (1996)].
(§4) The apparent equilibrium constants were obtained from the following equations, vi/vo=1/1+I/K1; vS/vo=1/1+I/KI* where vi is the initial rate, vs is the steady-state velocity and vo is the uninhibited initial rate.

Thrombin [2] = biological target: T1, Thrombin; assay: Jump dilution, determination of inhibition type; details: inhibitor at 10 times IC50, 15 min, diluted 10-fold or 100-fold; Rev./Irrev.
Trypsin-3 = biological target: T2, Trypsin-3 (Homo sapiens, UniProt P35030); assay: Kinetic progress curves (kapp, K1, KI*, mechanism); design: purchased R&D; details: for Trypsin-3 kapp: apparent second-order rate constant from progress curves; for Trypsin-3 kapp / Ki: mean ± SD; for Trypsin-3 mechanism of inhibition: defined by the progress curves: slow-binding (Rev.) or irreversible (Irrev.)
T2 sequence (P35030 1-304): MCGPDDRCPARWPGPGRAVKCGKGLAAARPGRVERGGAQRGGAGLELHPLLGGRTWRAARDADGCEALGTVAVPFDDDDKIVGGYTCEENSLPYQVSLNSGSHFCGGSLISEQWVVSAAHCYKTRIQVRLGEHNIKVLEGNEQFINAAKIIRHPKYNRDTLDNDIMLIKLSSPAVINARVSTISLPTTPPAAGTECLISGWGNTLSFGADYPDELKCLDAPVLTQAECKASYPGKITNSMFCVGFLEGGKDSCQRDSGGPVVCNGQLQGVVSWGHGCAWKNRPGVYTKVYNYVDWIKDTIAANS
Procedure: as §1, §2, §3, §4

β-tryptase = β-tryptase (Homo sapiens, UniProt P20231); assay: Kinetic progress curves (kapp, K1, KI*, mechanism); design: purchased EnzoLife Sciences; details: for β-tryptase kapp: apparent second-order rate constant from progress curves; for β-tryptase kapp / Ki: mean ± SD; for β-tryptase mechanism of inhibition: defined by the progress curves: slow-binding (Rev.) or irreversible (Irrev.)
Procedure: as §1, §2, §3, §4

[3] = Thrombin K1, apparent equilibrium constant of the first step of slow-binding
[4] = Thrombin KI*, apparent equilibrium constant of the overall process
[5] = Trypsin-3 K1, apparent equilibrium constant of the first step of slow-binding
[6] = Trypsin-3 KI*, apparent equilibrium constant of the overall process
[7] = β-tryptase K1, apparent equilibrium constant of the first step of slow-binding
[8] = β-tryptase KI*, apparent equilibrium constant of the overall process

Chain of β-tryptase (P20231 31-275): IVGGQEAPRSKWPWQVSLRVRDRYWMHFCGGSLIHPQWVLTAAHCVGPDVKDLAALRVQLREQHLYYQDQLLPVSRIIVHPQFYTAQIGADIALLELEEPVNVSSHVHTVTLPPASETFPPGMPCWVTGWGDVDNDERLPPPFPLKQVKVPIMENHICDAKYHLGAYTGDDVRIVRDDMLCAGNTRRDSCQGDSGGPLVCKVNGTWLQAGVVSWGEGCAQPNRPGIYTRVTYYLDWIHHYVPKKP

Structure (SMILES)	Ki (Thrombin [1]; [3])	Ki (Thrombin [1]; [4])	Thrombin kapp (Thrombin [1])	Thrombin mechanism of inhibition (Thrombin [1])	Thrombin jump dilution result (Thrombin [2])	Trypsin-3 kapp (Trypsin-3)	selectivity for trypsin-3 over the other tested proteases (Trypsin-3; based on the kapp values)	Trypsin-3 mechanism of inhibition (Trypsin-3)	β-tryptase kapp (β-tryptase)	β-tryptase mechanism of inhibition (β-tryptase)	Ki (Thrombin [1]; read-out: Thrombin K1, apparent equilibrium constant of the first step of slow-binding)	Ki (Thrombin [1]; read-out: Thrombin KI*, apparent equilibrium constant of the overall process)	Ki (Trypsin-3; [5])	Ki (Trypsin-3; [6])	selectivity for trypsin-3 over β-tryptase (Trypsin-3; based on the kapp values)	selectivity for trypsin-3 versus thrombin (Trypsin-3; based on the kapp values)	selectivity for trypsin-3 versus uPA (Trypsin-3; based on the kapp values)	Ki (β-tryptase; [7])	Ki (β-tryptase; [8])
C#CCCCOC(=O)NC(CCCNC(=N)N)P(=O)(Oc1ccccc1)Oc1ccccc1 (stereo not drawn) [32b]	22600 ± 5000 nM	450 ± 30 nM	64 ± 8 M⁻¹ s⁻¹	Rev.	Rev.	18 × 10^2 ± 66 M^−1 s^−1	at least 30 fold	Irrev.	41 ± 5 M⁻¹ s⁻¹	Irrev.	–	–	–	–	–	–	–	–	–
C[C@@H]1NC(=O)N[C@@H]1CCCCCC(=O)NCCOCCOCCOCCn1cc(CCCOC(=O)NC(CCCNC(=N)N)P(=O)(Oc2ccccc2)Oc2ccccc2)nn1 (stereo partly drawn) [45b]	–	–	19 ± 2 M⁻¹ s⁻¹	Rev.	Rev.	17 × 10^2 ± 122 M^−1 s^−1	–	Irrev.	237 ± 42 M⁻¹ s⁻¹	Irrev.	9970 ± 1000 nM	1140 ± 110 nM	–	–	–	–	–	–	–
C#CCCCOC(=O)NC(Cc1ccc(NC(=N)N)cc1)P(=O)(Oc1ccccc1)Oc1ccccc1 (stereo not drawn) [34b]	134000 ± 26000 nM	4930 ± 510 nM	17 ± 1 M⁻¹ s⁻¹	Rev.	Rev.	40 × 10^3 ± 2642 M^−1 s^−1	–	reversible slow-binding and Rev.	712 ± 41 M⁻¹ s⁻¹	Rev.	–	–	29 ± 5 nM	3 ± 0.3 nM	55 fold	over 2000 fold	5 fold	15800 ± 5000 nM	1110 ± 90 nM
C#CCCCOC(=O)NC(Cc1ccc(NC(=N)N)cc1)P(=O)(Oc1ccc(Cl)cc1)Oc1ccc(Cl)cc1 (stereo not drawn) [36b]	9030 ± 500 nM	30 ± 2 nM	251 ± 16 M⁻¹ s⁻¹	Rev.	Rev.	29 × 10^3 ± 6499 M^−1 s^−1	–	Rev.	61 × 10^3 ± 6860 M^−1 s^−1	reversible and Rev.	–	–	8 ± 0.8 nM	1 ± 0.1 nM	–	–	–	340 ± 70 nM	90 ± 10 nM
C[C@@H]1NC(=O)N[C@@H]1CCCCCC(=O)NCCOCCOCCOCCn1cc(CCCOC(=O)NC(Cc2ccc(NC(=N)N)cc2)P(=O)(Oc2ccc(Cl)cc2)Oc2ccc(Cl)cc2)nn1 (stereo partly drawn) [54b]	–	60 ± 6 nM	–	* ^d Rev.	Rev.	–	–	* ^d Rev.	–	reversible slow-binding mechanism; also recorded: * ^d Rev	–	–	6 ± 0.5 nM	0.8 nM	–	–	–	130 ± 30 nM	20 ± 1 nM
C#CCCCOC(=O)NC(Cc1ccc(NC(=N)N)cc1)P(=O)(Oc1ccc(NC(C)=O)cc1)Oc1ccc(NC(C)=O)cc1 (stereo not drawn) [35b]	32700 ± 4000 nM	630 ± 40 nM	128 ± 5 M⁻¹ s⁻¹	Rev.	Rev.	–	–	* ^d Rev.	70 × 10^2 ± 582 M^−1 s^−1	Rev.	–	–	1 ± 0.1 nM	0.1 nM	–	–	–	3200 ± 1800 nM	120 ± 10 nM
C#CCCCOC(=O)NC(CCCNC(=N)N)P(=O)(Oc1ccc(Cl)cc1)Oc1ccc(Cl)cc1 (stereo not drawn) [33b]	4130 ± 700 nM	280 ± 40 nM	11 × 10^2 ± 42 M^−1 s^−1	reversible inhibition and Rev.	Rev.	35 × 10^2 ± 40 M^−1 s^−1	–	irreversibility; also recorded: Irrev	28 × 10^2 ± 82 M^−1 s^−1	irreversibility; also recorded: irreversible; also recorded: Irrev	–	–	–	–	–	–	–	–	–
